This note sets out measurements from patent publication US4698352A, “4-oxo-1,4-dihydronicotinic acid derivatives, salts thereof, and antibacterial agents containing the same” (Toyama Chemical Co., Ltd., priority 1982, dated 1987).

Test in all cases: Antibacterial activity (MIC), agar dilution
Type in all cases: cell-based
In general terms: In agar dilution the substance is mixed into plates at graded concentrations.

One assay concerns Kl. pneumoniae Y-4*. To be noted: Klebsiella pneumoniae, 20 h, Kl. pneumoniae Y-4, penicillinase-producing; 10^6 cells per ml; read-out: MIC. From the text: (§1) The amount of bacteria inoculated was 10^4 cells per plate (10^6 cells per ml).
(§2) * Penicillinase-producing bacteria

The next assay deals with Ps. aeruginosa GN3379*. To be noted: Pseudomonas aeruginosa, Ps. aeruginosa GN3379, penicillinase-producing, 10^6 cells per ml.
Description: as §1, §2

The test system of the next assay is St. aureus F-137*. To be noted: Staphylococcus aureus, 20 h.
Description: as §1, §2

The subject of the next assay is E. coli TK-3*. As to conditions: Escherichia coli, 20 h, E. coli TK-3, penicillinase-producing; 10^6 cells per ml; read-out: MIC.
Description: as §1, §2

For a further assay, the system named is Pro. vulgaris GN76**. As to conditions: Proteus vulgaris.
Description: as §1
(§3) ** Cephalospolinase-producing bacteria

In another assay the test system is E. coli GN5482**. To be noted: Escherichia coli, 20 h; E. coli GN5482, cephalospolinase-producing; 10^6 cells per ml; read-out: MIC.
Description: as §1, §3

In a further assay the test system is Ps. aeruginosa GN918**. To be noted: Pseudomonas aeruginosa, 20 h; Ps. aeruginosa GN918, cephalospolinase-producing; 10^6 cells per ml; read-out: MIC.
Description: as §1, §3

In another assay the test system is Pro. vulgaris GN3027. To be noted: Proteus vulgaris, GN3027, 20 h, Pro. vulgaris GN3027; 10^6 cells per ml; 37° C., 20 hours; read-out: MIC.
Description: as §1

Another assay concerns Kl. pneumoniae Y-50. As to conditions: Klebsiella pneumoniae, Y50, 20 h, 10^6 cells per ml, 37° C., read-out: MIC.
Description: as §1

The test system of another assay is Ent. cloacae IID977. To be noted: Enterobacter cloacae, IID977, 20 h.
Description: as §1

A further assay concerns Ps. aeruginosa IFO3445. As to conditions: Pseudomonas aeruginosa; Ps. aeruginosa IFO3445; 10^6 cells per ml; 37° C., 20 hours; read-out: MIC.
Description: as §1

The subject of the next assay is Pro. morganii T-216. As to conditions: Morganella morganii, 37° C.
Description: as §1

The subject of the next assay is St. aureus FDA209P. As to conditions: Staphylococcus aureus, FDA209P, 20 h.
Description: as §1

For a further assay, the system named is Pro. mirabilis T-111. As to conditions: Proteus mirabilis, 37° C.
Description: as §1

A further assay has as its system Ps. aeruginosa S-68. As to conditions: Pseudomonas aeruginosa.
Description: as §1

A further assay relates to E. coli NIHJ JC-2. As to conditions: Escherichia coli, NIHJJC2, 20 h.
Description: as §1

The next assay concerns E. coli TK-111. As to conditions: Escherichia coli, TK111, 20 h, E. coli TK-111; 10^6 cells per ml; 37° C., 20 hours; read-out: MIC.
Description: as §1

The next assay relates to Aci. antitratus A-6. To be noted: 20 h.
Description: as §1

The subject of a further assay is Kl. pneumoniae Y-41. As to conditions: Klebsiella pneumoniae, Y41, 10^6 cells per ml, 37° C., 20 hours, read-out: MIC.
Description: as §1

[1] abbreviates: St. aureus F-137, penicillinase-producing, 10^6 cells per ml, read-out: MIC.
Setting [2] is: Ent. cloacae IID977, 10^6 cells per ml, 37° C., 20 hours, read-out: MIC.
Setting [3] is: St. aureus FDA209P, 10^6 cells per ml, 37° C., 20 hours, read-out: MIC.
Where [4] appears, read: S68, Ps. aeruginosa S-68, 10^6 cells per ml, 37° C., 20 hours, read-out: MIC.
The mark [5] stands for this setting: E. coli NIHJ JC-2, 10^6 cells per ml, 37° C., 20 hours, read-out: MIC.
[6] abbreviates: Aci. antitratus A-6, 10^6 cells per ml, 37° C., 20 hours, read-out: MIC.
The mark [7] stands for this setting: T216, 10^6 cells per ml, 20 hours, read-out: MIC.

Values after ≈ are worked out from the molar mass of the structure shown. Where two headings read alike, the source gives them in different places.

Usually MIC stands for the lowest concentration that inhibits growth of the organism. On to `CNc1ccc(-c2cc(=O)c(C(=O)O)cn2-c2ccc(O)cc2)cc1C`, for which the minimum inhibitory concentration (MIC) was 1.56 µg/mL (≈ 4.45 µM) in the assay on Kl. pneumoniae Y-4*; 6.25 µg/mL (≈ 17.8 µM) in the assay with Ps. aeruginosa GN3379* (20 h, read-out: MIC); 0.39 µg/mL (≈ 1.11 µM) in the assay on St. aureus F-137* (setting [1]); 0.39 µg/mL (≈ 1.11 µM) with E. coli TK-3*; 0.78 µg/mL (≈ 2.23 µM) in the assay with Pro. vulgaris GN76** (20 h, Pro. vulgaris GN76, cephalospolinase-producing, 10^6 cells per ml, read-out: MIC); at most 0.05 µg/mL with E. coli GN5482**. The MIC was 0.78 µg/mL (≈ 2.23 µM) in the assay with Ps. aeruginosa GN918**; 0.39 µg/mL (≈ 1.11 µM) in the assay on Pro. vulgaris GN3027; 0.39 µg/mL (≈ 1.11 µM) in the assay on Kl. pneumoniae Y-50; 0.78 µg/mL (≈ 2.23 µM) in the assay on Ent. cloacae IID977 (setting [2]); 3.13 µg/mL (≈ 8.93 µM) with Ps. aeruginosa IFO3445; 1.56 µg/mL (≈ 4.45 µM) against Pro. morganii T-216 (T216, 20 h, 10^6 cells per ml). Moreover, the MIC in the assay on St. aureus FDA209P (setting [3]) is 0.39 µg/mL (≈ 1.11 µM); in the assay on Pro. mirabilis T-111 (T111, 10^6 cells per ml, 20 hours, read-out: MIC), 3.13 µg/mL (≈ 8.93 µM); in the assay with Ps. aeruginosa S-68 (setting [4]), 3.13 µg/mL (≈ 8.93 µM); in the assay with E. coli NIHJ JC-2 (setting [5]) it was 0.39 µg/mL (≈ 1.11 µM); with E. coli TK-111, 0.1 µg/mL (≈ 0.285 µM); in the assay on Aci. antitratus A-6 (setting [6]), 0.78 µg/mL (≈ 2.23 µM). Besides, in the assay on Kl. pneumoniae Y-41, the minimum inhibitory concentration (MIC) came to 1.56 µg/mL (≈ 4.45 µM).
For `O=C(O)c1cn(-c2ccc(F)cc2)c(-c2ccc(Cl)cc2)cc1=O`, the MIC was 25 µg/mL (≈ 72.7 µM) in the assay with Kl. pneumoniae Y-4*; 50 µg/mL (≈ 145 µM) in the assay on Ps. aeruginosa GN3379* (20 h, read-out: MIC); 6.25 µg/mL (≈ 18.2 µM) in the assay with St. aureus F-137* (setting [1]); 6.25 µg/mL (≈ 18.2 µM) with E. coli TK-3*; 3.13 µg/mL (≈ 9.11 µM) with Pro. vulgaris GN76** (GN76, 20 h); 0.39 µg/mL (≈ 1.13 µM) in the assay with E. coli GN5482**. Besides, the minimum inhibitory concentration (MIC) in the assay with Ps. aeruginosa GN918** is 100 µg/mL (≈ 291 µM); with Pro. vulgaris GN3027 it was 0.39 µg/mL (≈ 1.13 µM); in the assay with Kl. pneumoniae Y-50, 3.13 µg/mL (≈ 9.11 µM); in the assay with Ent. cloacae IID977 (setting [2]), 6.25 µg/mL (≈ 18.2 µM); with Ps. aeruginosa IFO3445 it was above 100 µg/mL; with Pro. morganii T-216 (setting [7]) it was 6.25 µg/mL (≈ 18.2 µM). In addition, the MIC in the assay with St. aureus FDA209P (setting [3]) came to 6.25 µg/mL (≈ 18.2 µM); against Pro. mirabilis T-111 (T111, 20 h, 10^6 cells per ml) it was 12.5 µg/mL (≈ 36.4 µM); in the assay with Ps. aeruginosa S-68 (setting [4]), 50 µg/mL (≈ 145 µM); with E. coli NIHJ JC-2, 3.13 µg/mL (≈ 9.11 µM); in the assay with E. coli TK-111, 1.56 µg/mL (≈ 4.54 µM); against Aci. antitratus A-6 it was 3.13 µg/mL (≈ 9.11 µM). In the assay on Kl. pneumoniae Y-41, the minimal inhibitory concentration (MIC) worked out at 12.5 µg/mL (≈ 36.4 µM).
With `O=C(O)c1cn(-c2ccc(F)cc2)c(-c2ccc(Cl)s2)cc1=O`, the minimum inhibitory concentration (MIC) in the assay with Kl. pneumoniae Y-4* was 25 µg/mL (≈ 71.5 µM); in the assay on Ps. aeruginosa GN3379* (20 h, read-out: MIC), 25 µg/mL (≈ 71.5 µM); against St. aureus F-137* it was 3.13 µg/mL (≈ 8.95 µM); in the assay on E. coli TK-3*, 6.25 µg/mL (≈ 17.9 µM); with Pro. vulgaris GN76** (GN76, 20 h), 3.13 µg/mL (≈ 8.95 µM); in the assay with E. coli GN5482** it was 0.39 µg/mL (≈ 1.12 µM). For the same compound, the minimum inhibitory concentration (MIC) was determined as 100 µg/mL (≈ 286 µM) in the assay on Ps. aeruginosa GN918**; 0.39 µg/mL (≈ 1.12 µM) in the assay with Pro. vulgaris GN3027; 3.13 µg/mL (≈ 8.95 µM) in the assay with Kl. pneumoniae Y-50; 12.5 µg/mL (≈ 35.7 µM) against Ent. cloacae IID977; 50 µg/mL (≈ 143 µM) with Ps. aeruginosa IFO3445; 6.25 µg/mL (≈ 17.9 µM) in the assay on Pro. morganii T-216 (setting [7]). Moreover, the MIC against St. aureus FDA209P is 3.13 µg/mL (≈ 8.95 µM); with Pro. mirabilis T-111 (T111, 20 h, 10^6 cells per ml), 12.5 µg/mL (≈ 35.7 µM); in the assay on Ps. aeruginosa S-68 (setting [4]), 25 µg/mL (≈ 71.5 µM); against E. coli NIHJ JC-2, 3.13 µg/mL (≈ 8.95 µM); with E. coli TK-111 it was 1.56 µg/mL (≈ 4.46 µM); with Aci. antitratus A-6 (setting [6]) it was 1.56 µg/mL (≈ 4.46 µM). For the same compound, in the assay on Kl. pneumoniae Y-41, the MIC came out at 12.5 µg/mL (≈ 35.7 µM).
Regarding `Cc1cc(O)ccc1-n1cc(C(=O)O)c(=O)cc1CCc1ccccc1`, the minimum inhibitory concentration (MIC) in the assay with Kl. pneumoniae Y-4* worked out at 12.5 µg/mL (≈ 35.8 µM); in the assay with Ps. aeruginosa GN3379* (GN3379, 20 h), 12.5 µg/mL (≈ 35.8 µM); with St. aureus F-137* (setting [1]), 0.78 µg/mL (≈ 2.23 µM); with E. coli TK-3*, 3.13 µg/mL (≈ 8.96 µM); against Pro. vulgaris GN76** (GN76, 20 h), 1.56 µg/mL (≈ 4.46 µM); in the assay on E. coli GN5482**, 0.2 µg/mL (≈ 0.572 µM). Also, the MIC in the assay with Ps. aeruginosa GN918** is 3.13 µg/mL (≈ 8.96 µM); in the assay on Pro. vulgaris GN3027, 0.1 µg/mL (≈ 0.286 µM); in the assay on Kl. pneumoniae Y-50 it was 1.56 µg/mL (≈ 4.46 µM); with Ent. cloacae IID977 (setting [2]), 6.25 µg/mL (≈ 17.9 µM); in the assay with Ps. aeruginosa IFO3445, 25 µg/mL (≈ 71.6 µM); with Pro. morganii T-216 (setting [7]), 3.13 µg/mL (≈ 8.96 µM). Moreover, the MIC came out at 0.78 µg/mL (≈ 2.23 µM) in the assay with St. aureus FDA209P (setting [3]); 12.5 µg/mL (≈ 35.8 µM) in the assay on Pro. mirabilis T-111 (T111, 20 h, 10^6 cells per ml); 12.5 µg/mL (≈ 35.8 µM) in the assay on Ps. aeruginosa S-68 (S68, 20 h); 3.13 µg/mL (≈ 8.96 µM) in the assay on E. coli NIHJ JC-2 (setting [5]); 0.39 µg/mL (≈ 1.12 µM) with E. coli TK-111; 0.39 µg/mL (≈ 1.12 µM) with Aci. antitratus A-6 (setting [6]). Moreover, in the assay with Kl. pneumoniae Y-41, the MIC worked out at 12.5 µg/mL (≈ 35.8 µM).
